Organism: Rattus norvegicus
Experiment: Open TG-GATES - Regimen: Daily Repeat
Format: toxicity, organism-based, Sprague-Dawley
Design: regimen Daily Repeat, gender Male, age 6 weeks
Settings: in vivo, po, route gavage; for APTT / Bas / Eos / Fbg / Hb / Ht / Lym / MCH / MCHC / MCV / Mono / Neu / PT / Plat / RBC / Ret / WBC: tissue Blood; for KIDNEY_L / KIDNEY_R / KIDNEY_TOTAL: tissue Kidney; for LIVER: tissue Liver; for A/G / ALP / ALT / AST / BUN / CRE / Ca / Cl / DBIL / GLC / IP / K / LDH / Na / PL / RALB / TBIL / TC / TG / TP / gamma-GTP: tissue Plasma
[1] = 0 mg/kg, 72 h, dose level Control, time 3 day
[2] = 0 mg/kg, […], dose level Control, time 7 day
[3] = 0 mg/kg, […], dose level Control, time 14 day
[4] = 0 mg/kg, […], dose level Control, time 28 day
[5] = 20 mg/kg, 72 h, dose level Low, time 3 day
[6] = 20 mg/kg, […], dose level Low, time 7 day
[7] = 20 mg/kg, […], dose level Low, time 14 day
[8] = 20 mg/kg, […], dose level Low, time 28 day

Cn1c(=O)c2[nH]cnc2n(C)c1=O.O [THEOPHYLLINE]
TERMINAL_BW [1]: 247 g
APTT [1]: 23.1 s
Bas [1]: 0%
Eos [1]: 0.8%
Fbg [1]: 314.4 mg/dL
Hb [1]: 13.2 g/dL
Ht [1]: 39.5%
Lym [1]: 79.4%
MCH [1]: 21.2 pg
MCHC [1]: 33.5%
MCV [1]: 63.2 fL
Mono [1]: 3.2%
Neu [1]: 15.2%
PT [1]: 15 s
Plat [1]: 114.7 x10_4/uL
RBC [1]: 625.4 x10_4/ul
Ret [1]: 7.3%
WBC [1]: 109 x10_2/uL
KIDNEY_L [1]: 1.1 g
KIDNEY_R [1]: 1.1 g
KIDNEY_TOTAL [1]: 2.2 g
LIVER [1]: 12.2 g
A/G [1]: 1.2
ALP [1]: 1800.8 IU/L
ALT [1]: 48.4 IU/L
AST [1]: 71.4 IU/L
BUN [1]: 17.6 mg/dL
CRE [1]: 0.2 mg/dL
Ca [1]: 10.7 mg/dL
Cl [1]: 105.8 meq/L
DBIL [1]: 0 mg/dL
GLC [1]: 203.8 mg/dL
IP [1]: 8.5 mg/dL
K [1]: 4.3 meq/L
LDH [1]: 183.6 IU/L
Na [1]: 141 meq/L
PL [1]: 156.6 mg/dL
RALB [1]: 3 g/dL
TBIL [1]: 0 mg/dL
TC [1]: 85 mg/dL
TG [1]: 96.2 mg/dL
TP [1]: 5.5 g/dL
gamma-GTP [1]: 1.6 IU/L
TERMINAL_BW [2]: 278.6 g
TERMINAL_BW [3]: 330.3 g
TERMINAL_BW [4]: 378.5 g
APTT [2]: 21.8 s
Bas [2]: 0%
Eos [2]: 1%
Fbg [2]: 305.4 mg/dL
Hb [2]: 13.9 g/dL
Ht [2]: 40.5%
Lym [2]: 77.8%
MCH [2]: 20.9 pg
MCHC [2]: 34.2%
MCV [2]: 61.2 fL
Mono [2]: 2.8%
Neu [2]: 17.4%
PT [2]: 15.8 s
Plat [2]: 112 x10_4/uL
RBC [2]: 662 x10_4/ul
Ret [2]: 6%
WBC [2]: 113.8 x10_2/uL
APTT [3]: 24.2 s
Bas [3]: 0%
Eos [3]: 0.8%
Fbg [3]: 324.6 mg/dL
Hb [3]: 14.5 g/dL
Ht [3]: 42.5%
Lym [3]: 79.2%
MCH [3]: 21 pg
MCHC [3]: 34.1%
MCV [3]: 61.5 fL
Mono [3]: 3%
Neu [3]: 15.2%
PT [3]: 15.6 s
Plat [3]: 114.6 x10_4/uL
RBC [3]: 691.8 x10_4/ul
Ret [3]: 4.4%
WBC [3]: 138.2 x10_2/uL
APTT [4]: 24.9 s
Bas [4]: 0%
Eos [4]: 1%
Fbg [4]: 303 mg/dL
Hb [4]: 14.8 g/dL
Ht [4]: 42.6%
Lym [4]: 80.2%
MCH [4]: 18.9 pg
MCHC [4]: 34.8%
MCV [4]: 54.6 fL
Mono [4]: 1.6%
Neu [4]: 15%
PT [4]: 16.2 s
Plat [4]: 98.8 x10_4/uL
RBC [4]: 783 x10_4/ul
Ret [4]: 2.7%
WBC [4]: 113.3 x10_2/uL
KIDNEY_L [2]: 1.2 g
KIDNEY_R [2]: 1.3 g
KIDNEY_TOTAL [2]: 2.5 g
KIDNEY_L [3]: 1.3 g
KIDNEY_R [3]: 1.3 g
KIDNEY_TOTAL [3]: 2.7 g
KIDNEY_L [4]: 1.4 g
KIDNEY_R [4]: 1.4 g
KIDNEY_TOTAL [4]: 2.8 g
LIVER [2]: 12.9 g
LIVER [3]: 15.4 g
LIVER [4]: 15.4 g
A/G [2]: 1.2
ALP [2]: 1566.8 IU/L
ALT [2]: 43.8 IU/L
AST [2]: 80.4 IU/L
BUN [2]: 20 mg/dL
CRE [2]: 0.2 mg/dL
Ca [2]: 10.3 mg/dL
Cl [2]: 106.6 meq/L
DBIL [2]: 0 mg/dL
GLC [2]: 212.2 mg/dL
IP [2]: 7.5 mg/dL
K [2]: 4.6 meq/L
LDH [2]: 253.2 IU/L
Na [2]: 141.4 meq/L
PL [2]: 145.2 mg/dL
RALB [2]: 3 g/dL
TBIL [2]: 0 mg/dL
TC [2]: 69.4 mg/dL
TG [2]: 106.2 mg/dL
TP [2]: 5.6 g/dL
gamma-GTP [2]: 1.8 IU/L
A/G [3]: 1.1
ALP [3]: 1434.6 IU/L
ALT [3]: 38.2 IU/L
AST [3]: 68.4 IU/L
BUN [3]: 18.6 mg/dL
CRE [3]: 0.2 mg/dL
Ca [3]: 10.3 mg/dL
Cl [3]: 107 meq/L
DBIL [3]: 0 mg/dL
GLC [3]: 188.2 mg/dL
IP [3]: 7.3 mg/dL
K [3]: 4.4 meq/L
LDH [3]: 184.4 IU/L
Na [3]: 142 meq/L
PL [3]: 149.2 mg/dL
RALB [3]: 3.1 g/dL
TBIL [3]: 0.004 mg/dL
TC [3]: 71.4 mg/dL
TG [3]: 135.4 mg/dL
TP [3]: 5.9 g/dL
gamma-GTP [3]: 2.6 IU/L
A/G [4]: 1
ALP [4]: 1140.2 IU/L
ALT [4]: 38.6 IU/L
AST [4]: 64.8 IU/L
BUN [4]: 18.2 mg/dL
CRE [4]: 0.2 mg/dL
Ca [4]: 10.3 mg/dL
Cl [4]: 106.4 meq/L
DBIL [4]: 0 mg/dL
GLC [4]: 204.6 mg/dL
IP [4]: 6.5 mg/dL
K [4]: 4.1 meq/L
LDH [4]: 132.2 IU/L
Na [4]: 142.4 meq/L
PL [4]: 140.6 mg/dL
RALB [4]: 3.1 g/dL
TBIL [4]: 0.01 mg/dL
TC [4]: 65 mg/dL
TG [4]: 145.6 mg/dL
TP [4]: 6.1 g/dL
gamma-GTP [4]: 2.8 IU/L
TERMINAL_BW [5]: 242.7 g
APTT [5]: 22.4 s
Bas [5]: 0%
Eos [5]: 1%
Fbg [5]: 305.4 mg/dL
Hb [5]: 13.4 g/dL
Ht [5]: 39.6%
Lym [5]: 76.6%
MCH [5]: 21.2 pg
MCHC [5]: 33.8%
MCV [5]: 62.6 fL
Mono [5]: 3.2%
Neu [5]: 18%
PT [5]: 15.5 s
Plat [5]: 119.5 x10_4/uL
RBC [5]: 632.4 x10_4/ul
Ret [5]: 5.9%
WBC [5]: 125.2 x10_2/uL
KIDNEY_L [5]: 1.1 g
KIDNEY_R [5]: 1.1 g
KIDNEY_TOTAL [5]: 2.1 g
LIVER [5]: 10.9 g
A/G [5]: 1.3
ALP [5]: 1574.4 IU/L
ALT [5]: 45.2 IU/L
AST [5]: 71.8 IU/L
BUN [5]: 15.4 mg/dL
CRE [5]: 0.2 mg/dL
Ca [5]: 10.6 mg/dL
Cl [5]: 106.8 meq/L
DBIL [5]: 0 mg/dL
GLC [5]: 194.8 mg/dL
IP [5]: 7.4 mg/dL
K [5]: 4.4 meq/L
LDH [5]: 167.2 IU/L
Na [5]: 142.4 meq/L
PL [5]: 132.6 mg/dL
RALB [5]: 3 g/dL
TBIL [5]: 0.004 mg/dL
TC [5]: 70 mg/dL
TG [5]: 97 mg/dL
TP [5]: 5.5 g/dL
gamma-GTP [5]: 1.6 IU/L
TERMINAL_BW [6]: 271.5 g
TERMINAL_BW [7]: 324.6 g
TERMINAL_BW [8]: 357.5 g
APTT [6]: 24 s
Bas [6]: 0%
Eos [6]: 1%
Fbg [6]: 312.6 mg/dL
Hb [6]: 14.2 g/dL
Ht [6]: 41.1%
Lym [6]: 80%
MCH [6]: 20.9 pg
MCHC [6]: 34.5%
MCV [6]: 60.5 fL
Mono [6]: 2.6%
Neu [6]: 14.4%
PT [6]: 15.4 s
Plat [6]: 111.8 x10_4/uL
RBC [6]: 679 x10_4/ul
Ret [6]: 5.3%
WBC [6]: 121.9 x10_2/uL
APTT [7]: 24.1 s
Bas [7]: 0%
Eos [7]: 1%
Fbg [7]: 333.4 mg/dL
Hb [7]: 14.4 g/dL
Ht [7]: 42.7%
Lym [7]: 80%
MCH [7]: 19.9 pg
MCHC [7]: 33.7%
MCV [7]: 59 fL
Mono [7]: 2.4%
Neu [7]: 14.6%
PT [7]: 15.3 s
Plat [7]: 110.9 x10_4/uL
RBC [7]: 724.8 x10_4/ul
Ret [7]: 4.9%
WBC [7]: 110 x10_2/uL
APTT [8]: 26.7 s
Bas [8]: 0%
Eos [8]: 1%
Fbg [8]: 333.2 mg/dL
Hb [8]: 15.4 g/dL
Ht [8]: 44.6%
Lym [8]: 83.6%
MCH [8]: 18.7 pg
MCHC [8]: 34.4%
MCV [8]: 54.4 fL
Mono [8]: 1.6%
Neu [8]: 12.8%
PT [8]: 15.8 s
Plat [8]: 108.7 x10_4/uL
RBC [8]: 820.8 x10_4/ul
Ret [8]: 2.5%
WBC [8]: 112.5 x10_2/uL
KIDNEY_L [6]: 1.1 g
KIDNEY_R [6]: 1.2 g
KIDNEY_TOTAL [6]: 2.3 g
KIDNEY_L [7]: 1.3 g
KIDNEY_R [7]: 1.3 g
KIDNEY_TOTAL [7]: 2.6 g
KIDNEY_L [8]: 1.3 g
KIDNEY_R [8]: 1.4 g
KIDNEY_TOTAL [8]: 2.8 g
LIVER [6]: 12.4 g
LIVER [7]: 14.3 g
LIVER [8]: 13.8 g
A/G [6]: 1.1
ALP [6]: 1498.6 IU/L
ALT [6]: 40 IU/L
AST [6]: 68.2 IU/L
BUN [6]: 19.2 mg/dL
CRE [6]: 0.2 mg/dL
Ca [6]: 10.3 mg/dL
Cl [6]: 106.2 meq/L
DBIL [6]: 0 mg/dL
GLC [6]: 185.4 mg/dL
IP [6]: 7.3 mg/dL
K [6]: 4.2 meq/L
LDH [6]: 184.6 IU/L
Na [6]: 142.2 meq/L
PL [6]: 150 mg/dL
RALB [6]: 3 g/dL
TBIL [6]: 0.004 mg/dL
TC [6]: 77.2 mg/dL
TG [6]: 106.2 mg/dL
TP [6]: 5.7 g/dL
gamma-GTP [6]: 1.8 IU/L
A/G [7]: 1.2
ALP [7]: 1256.2 IU/L
ALT [7]: 37 IU/L
AST [7]: 64 IU/L
BUN [7]: 17.8 mg/dL
CRE [7]: 0.2 mg/dL
Ca [7]: 10.3 mg/dL
Cl [7]: 106.4 meq/L
DBIL [7]: 0 mg/dL
GLC [7]: 177.6 mg/dL
IP [7]: 7.4 mg/dL
K [7]: 4.2 meq/L
LDH [7]: 140.8 IU/L
Na [7]: 141.8 meq/L
PL [7]: 152.2 mg/dL
RALB [7]: 3.1 g/dL
TBIL [7]: 0.008 mg/dL
TC [7]: 82.4 mg/dL
TG [7]: 92.4 mg/dL
TP [7]: 5.8 g/dL
gamma-GTP [7]: 2.6 IU/L
A/G [8]: 1.1
ALP [8]: 1031.2 IU/L
ALT [8]: 39.8 IU/L
AST [8]: 68.2 IU/L
BUN [8]: 16.6 mg/dL
CRE [8]: 0.2 mg/dL
Ca [8]: 10.1 mg/dL
Cl [8]: 107 meq/L
DBIL [8]: 0 mg/dL
GLC [8]: 192.2 mg/dL
IP [8]: 6.2 mg/dL
K [8]: 3.8 meq/L
LDH [8]: 134.6 IU/L
Na [8]: 143 meq/L
PL [8]: 137.6 mg/dL
RALB [8]: 3.2 g/dL
TBIL [8]: 0.016 mg/dL
TC [8]: 73.6 mg/dL
TG [8]: 97.6 mg/dL
TP [8]: 6.1 g/dL
gamma-GTP [8]: 2 IU/L

Source: ChEMBL document CHEMBL3885861, “Open TG-GATES”
